Results taken from patent US12370258B2, “PD-1 and CTLA-4 dual inhibitor peptides” (priority 2017, dated 2025).
Ends that are not written are not given here.

Experiments:
B16-F-10 mouse melanoma = experiment: B16-F10 mouse melanoma lung metastasis model; assay type: in vivo, C57/BL6 mice; settings: for number of tumor nodules, difference versus no treatment saline (one-way ANOVA, p<0.05) / reduction of lung metastasis (tumor nodules) relative to no treatment saline: Table 1B study, i.v., days 1, 2, 4, 6, 8, 12
human PBMCs = assay type: cell-based; settings: 72 hours
[1] = test system: CD1 mice with intra-abdominal peritonitis induced by cecal ligation and puncture (CLP); experiment: Mouse sepsis model (CLP), survival; assay type: in vivo; settings: 200 μg intraperitoneally at 6, 24, and 48 hours after CLP surgery
Source text: CD1 mice were anesthetized, a midline abdominal incision made, the cecum was ligated and punctured, and then the incision closed.

human PD-1 [2] = biological target: T1, human PD-1 (Homo sapiens, UniProt Q15116); experiment: Binding of PD-L1-Fc to PD-1 in a cell-free plate assay; settings: plates coated with peptide; 1 μg/mL PD-1
Experimental: The plates were washed and blocked with 1% BSA for 1 hour at room temperature. The plates were then incubated with 100 μL of 1 μg/mL PD-1 at room temperature for 1 hour. The plates were again washed and incubated with PD-L1 at room temperature for 1 hour. After another round of washes, the plates were incubated with anti-human IgG-HRP. After incubation for 1 hour and washes, the HRP was detected by incubating with TMB substrate, and the OD were read on a microplate reader.
Target sequence in this assay (Q15116 25-167 limits assumed): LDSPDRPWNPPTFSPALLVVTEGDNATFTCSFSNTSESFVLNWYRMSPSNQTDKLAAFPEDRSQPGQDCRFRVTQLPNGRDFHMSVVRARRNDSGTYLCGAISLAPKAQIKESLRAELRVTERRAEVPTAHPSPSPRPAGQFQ
Target sequence in this assay (Q9NZQ7 19-238 partner limits assumed): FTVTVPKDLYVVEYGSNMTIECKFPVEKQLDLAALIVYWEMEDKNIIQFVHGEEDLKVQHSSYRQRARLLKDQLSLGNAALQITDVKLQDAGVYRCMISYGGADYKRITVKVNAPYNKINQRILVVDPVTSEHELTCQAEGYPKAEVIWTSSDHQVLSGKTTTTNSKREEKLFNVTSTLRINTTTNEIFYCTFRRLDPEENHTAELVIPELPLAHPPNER

mouse PD-1 = biological target: T2, mouse PD-1 (Mus musculus, UniProt Q02242); experiment: BIACORE binding of peptide LD01 to mouse PD-1; settings: immobilized peptide; 25° C.
T2 sequence (Q02242 25-288): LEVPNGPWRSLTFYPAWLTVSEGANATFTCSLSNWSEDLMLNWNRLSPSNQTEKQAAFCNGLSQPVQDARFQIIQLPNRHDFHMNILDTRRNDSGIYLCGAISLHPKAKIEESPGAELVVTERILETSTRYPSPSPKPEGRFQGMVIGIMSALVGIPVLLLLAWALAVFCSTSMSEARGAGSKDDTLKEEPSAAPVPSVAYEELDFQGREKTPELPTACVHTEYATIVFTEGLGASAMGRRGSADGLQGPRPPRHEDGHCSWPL
Experimental: (§1) BIACORE® assays were carried out using a BIACORE® T-200 at 25° C. The assay and regeneration buffers contained 10 mM HEPES (pH 7.4), 150 mM NaCl, 3 mM EDTA, and 0.05% P20. The immobilization buffer was 10 mM sodium acetate, pH 5.0. The flow rate used for immobilizing the ligand was 5 μl/min. The flow rate for kinetics analysis was 30 μl/min.
(§2) Scouting. […] The un-occupied sites were blocked with 1M ethanol amine. Scouting was performed at a single analyte concentration of 290 nM to confirm yes/no binding. Flow cell 1 was kept blank and used for reference subtraction. Binding of analyte to the ligand was monitored in real time.
(§3) Full Kinetics. Based on the scouting results, full kinetics was performed at analyte concentration of 100 nM, followed by serial dilution to 50, 25, 12.5, 6.25, 3.125, 1.562 and 0 nM concentration or as indicated. KD was determined from the observed kon (on rate) and koff (off rate) or by steady state equilibrium kinetics for the interactions with fast off rate.
(§4) Chi square (χ^2) analysis was carried out between the actual Sensorgram and the sensorgram generated from the BIAnalysis software to determine the accuracy of the analysis. χ^2 value within 1-2 is considered significant (accurate) and below 1 is highly significant (highly accurate).

mouse splenocytes = experiment: Anti-CD3-stimulated mouse splenocyte proliferation (CFSE); assay type: cell-based; settings: 1, 5, 25 μM peptide; 1 μg/mL anti-CD3; presence and absence of exogenously added PD-L1-Fc; 3 days
Experimental: PD-L1-Fc fusion protein is hypothesized to reduce anti-CD3 induced splenocyte proliferation.
Carboxyfluorescein diacetate succinimidyl ester (CFSE)-labeled mouse splenocytes (400,000 cells, 5 μM CFSE) were stimulated using 1 μg/mL anti-CD3 antibody and varying levels of PD-L1-Fc or an irrelevant control Fc. […] The CFSE dilution profiles were analyzed by flow cytometry after 3 days of treatment.

[3] = biological target: T3, human PD-1 expressed on the surface of Jurkat cells (Homo sapiens, UniProt Q15116); experiment: Binding of PD-L1-Fc fusion protein to human PD-1 on Jurkat cells (flow cytometry); assay type: cell-based; settings: varying peptide concentrations, 1 hour pre-incubation; increasing dose-response trend
T3 construct: host or cells: Jurkat
Experimental: A human T cell line (Jurkat) stably expressing human PD-1 on its surface was purchased from Promega. This cell line was cultured using sterile techniques and maintained in log-phase growth. PD-1 protein expression levels were measured using an anti-human PD-1 antibody labeled with allophycocyanin (APC) for quality assessment.
For the experiment, 200 μL of 2.5*10^5 cells were plated in staining buffer into a microtiter plate. […] After another wash step, the cells were incubated with anti-human Fc labeled with AF647 for 30 minutes. After several washes, the mean fluorescence intensity due to PD-L1-Fc binding to PD-1 was measured by flow cytometry.

IFNγ-secreting T cells = experiment: Mouse sepsis model (CLP), splenic IFNγ-secreting T cells by ELISPOT; assay type: in vivo, mice; settings: treated at 6, 24, 48, 72 and 96 hours after CLP, anti-CD3 and anti-CD28 stimulation
Experimental: Twenty-four hours later, mice were euthanized, individual spleens were removed, and the number of splenic IFNγ-secreting T cells were determined by ELISPOT assay. For the ELISPOT assay splenocytes were stimulated via anti-CD3 and anti-CD28. Shown in FIG. 14 is the number of IFNγ-secreting T cells per 2×10^5 splenocytes.

[4] = test system: CSP-specific, IFNγ-secreting CD8+ T cells; experiment: Immunogenicity of AdPyCSP malaria vaccine (ELISPOT); assay type: in vivo, Balb/c mice; settings: for increase in number of CSP-specific, IFNγ-secreting CD8 T cells relative to AdPyCSP alone: 200 μg i.p. days 0, 1, 3, 5, 7, day 12
Experimental: Balb/c mice were immunized intramuscularly with 10^10 virus particles of a recombinant replication defective adenovirus expressing the Plasmodium yoelli circumsporozoite protein (AdPyCSP).
The negative control peptide used in this study was the ovalbumin (OVA) peptide ([…], SEQ ID NO:34). At day 12 post immunization, mice were euthanized, individual spleens removed, and the number of splenic CSP-specific, IFNγ-secreting CD8^+ T cells were determined by ELISPOT assay. For the ELISPOT assay splenocytes were stimulated with the peptide […] (SEQ ID NO:35), an H-2Kd-restricted CD8^+ T cell epitope of PyCSP.
Peptides LD01, LD10da, and LD16da were tested as described above, this time using peptide LD12 (cohort 2) as the negative control. Test sample, route of treatment and treatment days are detailed in Table 2B.
At day 12 post immunization, mice were euthanized, individual spleens removed, and the number of splenic CSP-specific, IFNγ-secreting CD8^+ T cells were determined by ELISPOT assay. For the ELISPOT assay splenocytes were stimulated with the peptide […] (SEQ ID NO:35), an H-2Kd-restricted CD8^+ T cell epitope of PyCSP.

human PD-1 [5] = biological target: T1, human PD-1; experiment: BIACORE binding of peptide LD01 to human PD-1; settings: immobilized peptide; single analyte concentration 290 nM; 25° C.
Experimental: as §1, §2, §3, §4
Target sequence in this assay (Q15116 25-288): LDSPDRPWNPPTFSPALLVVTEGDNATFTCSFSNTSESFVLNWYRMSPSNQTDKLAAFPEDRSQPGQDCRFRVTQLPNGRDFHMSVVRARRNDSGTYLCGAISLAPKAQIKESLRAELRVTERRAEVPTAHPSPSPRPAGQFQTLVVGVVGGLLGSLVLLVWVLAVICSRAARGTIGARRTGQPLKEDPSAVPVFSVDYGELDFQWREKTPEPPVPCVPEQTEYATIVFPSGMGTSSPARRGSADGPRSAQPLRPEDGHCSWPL

T3 sequence (Q15116 25-288): as above

CC[C@H](C)[C@H](NC(=O)[C@H](CCC(N)=O)NC(=O)CNC(=O)[C@@H](NC(=O)[C@H](CO)NC(=O)[C@H](N)[C@H](C)O)[C@@H](C)O)C(=O)N[C@@H](CO)C(=O)N[C@H](C(=O)N[C@@H](CC(C)C)C(=O)N[C@@H](CCCNC(=N)N)C(=O)N[C@H](C(=O)N[C@@H](CC(N)=O)C(=O)N[C@H](C(=O)N[C@H](C(=O)N[C@@H](C)C(=O)N1CCC[C@H]1C(=O)N[C@@H](CC(C)C)C(=O)N[C@@H](CO)C(=O)N[C@@H](CCC(N)=O)C(N)=O)[C@@H](C)O)[C@@H](C)CC)C(C)C)[C@@H](C)O [LD01 TQ19 da/LD16 da]
number of tumor nodules, difference versus no treatment saline (one-way ANOVA, p<0.05) (B16-F-10 mouse melanoma): Significant differences
reduction of lung metastasis (tumor nodules) relative to no treatment saline (B16-F-10 mouse melanoma): ~30%

CC[C@H](C)[C@H](NC(=O)[C@H](CCC(N)=O)NC(=O)CNC(=O)[C@@H](NC(=O)[C@H](CO)NC(=O)[C@@H](NC(=O)[C@H](CCCNC(=N)N)NC(=O)[C@H](CCCNC(=N)N)NC(=O)[C@@H](N)CS)[C@@H](C)O)[C@@H](C)O)C(=O)N[C@@H](CO)C(=O)N[C@H](C(=O)N[C@@H](CC(C)C)C(=O)N[C@@H](CCCNC(=N)N)C(=O)N[C@H](C(=O)N[C@@H](CC(N)=O)C(=O)N[C@H](C(=O)N[C@H](C(=O)N[C@@H](C)C(=O)N1CCC[C@H]1C(=O)N[C@@H](CC(C)C)C(=O)N[C@@H](CO)C(=O)N[C@@H](CCC(N)=O)C(N)=O)[C@@H](C)O)[C@@H](C)CC)C(C)C)[C@@H](C)O [LD01]
increase in IFN-γ secretion relative to SEB alone (human PBMCs): 4 fold
survival rate [1]: 70%
effect on binding of human PD-L1-Fc fusion protein to human PD-1 in a cell-free assay (human PD-1 [2]): enhances binding
reduction of lung metastasis (tumor nodules) relative to no treatment (B16-F-10 mouse melanoma; Table 1A study, Cohorts 3 and 4 (20 μg and 200 μg i.v., days 1, 2, 4, 6, 8, 12), day 14): ~50%
number of tumor nodules, difference versus no treatment saline (one-way ANOVA, p<0.05) (B16-F-10 mouse melanoma): Significant differences
reduction of lung metastasis (tumor nodules) relative to no treatment saline (B16-F-10 mouse melanoma): ~30%
binding to mouse PD-1 (BIACORE, single concentration and kinetics) (mouse PD-1): binds
effect on proliferation of anti-CD3 stimulated mouse splenocytes (mouse splenocytes): enhances proliferation
effect on binding of human PD-L1-Fc fusion protein to human PD-1-expressing Jurkat cells [3]: enhances binding
number of splenic IFNγ-secreting T cells relative to the control peptide (IFNγ-secreting T cells): increase
immunogenicity compared with anti-PD-1 or -PD-L1 antibody (Cohort 4 and 5) ([4]; Table 2A study, 200 μg i.p.): slightly above
increase in number of CSP-specific, IFNγ-secreting CD8 T cells relative to AdPyCSP alone ([4]; Table 2A study): ~2 fold
increase in number of CSP-specific, IFNγ-secreting CD8 T cells relative to AdPyCSP alone ([4]; Table 2B study): ~1.5 fold
binding to human PD-1 (BIACORE, yes/no) (human PD-1 [5]): binds

CC[C@H](C)[C@H](NC(=O)[C@H](CCC(N)=O)NC(=O)CNC(=O)[C@@H](NC(=O)[C@H](N)CO)[C@@H](C)O)C(=O)N[C@@H](CO)C(=O)N[C@H](C(=O)N[C@@H](CC(C)C)C(=O)N[C@@H](CCCNC(=N)N)C(=O)N[C@H](C(=O)N[C@@H](CC(N)=O)C(=O)N[C@H](C(=O)N[C@H](C(=O)N[C@@H](C)C(=O)N1CCC[C@H]1C(=O)N[C@@H](CC(C)C)C(=O)N[C@@H](CO)C(=O)N[C@@H](CCC(N)=O)C(N)=O)[C@@H](C)O)[C@@H](C)CC)C(C)C)[C@@H](C)O [LD10da]
immunogenicity compared with α-PD-1 mAb (Cohort 6) ([4]; Table 2B study, 200 μg i.p.): slightly above

RRTSPGQISTLRVNITAPLSQ [LD02]
survival rate [1]: 30%
